The source made the active and inactive calls. The calls are words filed in the database; no cut-off is given here.
Key:
U-937 = assay: cells; assay type: functional; conditions: Homo sapiens, U-937, 72 h
Description: Cytotoxicity against FLT3-deficient human U937 cells assessed as cell growth inhibition after 72 hrs by MTS assay

[1] = Oral bioavailability in Sprague-Dawley rat at 10 mg/kg; assay type: ADME, organism-based; conditions: in vivo
[2] = molecular target: Platelet-derived growth factor receptor alpha (Homo sapiens) (UniProt P16234); assay: Inhibition of human PDGFRalpha at 0.1 uM relative to control
[3] = molecular target: Macrophage colony-stimulating factor 1 receptor (Homo sapiens) (UniProt P07333); assay: Inhibition of human CSF1R at 0.1 uM relative to control
[4] = test system: Proto-oncogene tyrosine-protein kinase receptor Ret (Homo sapiens), P07949 [V804L]; assay: Inhibition of human RET V804L mutant at 0.1 uM relative to control
[5] = molecular target: High affinity nerve growth factor receptor (Homo sapiens) (UniProt P04629); assay: Inhibition of human NTRK1 at 0.1 uM relative to control
[6] = molecular target: Tyrosine-protein kinase Blk (Homo sapiens) (UniProt P51451); assay: Inhibition of human BLK at 0.1 uM relative to control
[7] = molecular target: Tyrosine-protein kinase ABL1 (Homo sapiens) (UniProt P00519); assay: Inhibition of human ABL1 at 0.1 uM relative to control
[8] = molecular target: Mast/stem cell growth factor receptor Kit (Homo sapiens) (UniProt P10721); assay: Inhibition of human KIT at 0.1 uM relative to control
[9] = test system: Platelet-derived growth factor receptor alpha (Homo sapiens), P16234 [V561D]; assay: Inhibition of human PDGFRA V561D mutant at 0.1 uM relative to control
Sequence of Platelet-derived growth factor receptor alpha (Homo sapiens), P16234 [V561D] (P16234 whole entry V561D): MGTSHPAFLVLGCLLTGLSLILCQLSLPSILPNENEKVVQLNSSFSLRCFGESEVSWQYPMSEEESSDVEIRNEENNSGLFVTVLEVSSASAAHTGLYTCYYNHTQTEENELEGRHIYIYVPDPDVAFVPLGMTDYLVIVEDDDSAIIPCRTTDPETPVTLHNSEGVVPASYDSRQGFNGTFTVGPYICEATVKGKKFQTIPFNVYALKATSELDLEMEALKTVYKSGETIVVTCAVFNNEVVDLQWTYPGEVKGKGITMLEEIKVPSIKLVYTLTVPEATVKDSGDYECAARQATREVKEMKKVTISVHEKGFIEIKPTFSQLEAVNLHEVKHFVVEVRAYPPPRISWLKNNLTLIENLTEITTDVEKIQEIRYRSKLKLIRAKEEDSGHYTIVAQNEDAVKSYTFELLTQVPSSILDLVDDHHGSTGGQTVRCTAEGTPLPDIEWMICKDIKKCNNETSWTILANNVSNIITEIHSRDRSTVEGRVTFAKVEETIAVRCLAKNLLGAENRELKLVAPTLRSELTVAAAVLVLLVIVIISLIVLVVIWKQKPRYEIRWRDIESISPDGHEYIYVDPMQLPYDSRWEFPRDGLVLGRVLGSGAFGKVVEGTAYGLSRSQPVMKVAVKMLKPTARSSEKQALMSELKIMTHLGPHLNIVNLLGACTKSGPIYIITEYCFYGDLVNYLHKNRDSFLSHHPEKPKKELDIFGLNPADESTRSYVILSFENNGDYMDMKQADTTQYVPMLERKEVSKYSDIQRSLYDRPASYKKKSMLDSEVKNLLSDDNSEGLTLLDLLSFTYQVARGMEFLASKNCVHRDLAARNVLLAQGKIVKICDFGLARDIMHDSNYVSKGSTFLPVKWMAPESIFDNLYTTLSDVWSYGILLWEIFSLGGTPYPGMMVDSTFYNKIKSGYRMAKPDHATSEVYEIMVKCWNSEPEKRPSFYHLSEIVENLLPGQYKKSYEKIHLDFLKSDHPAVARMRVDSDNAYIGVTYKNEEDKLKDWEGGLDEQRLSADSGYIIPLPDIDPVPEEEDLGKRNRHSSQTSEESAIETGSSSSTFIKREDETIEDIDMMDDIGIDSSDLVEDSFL

[10] = molecular target: Interleukin-1 receptor-associated kinase 4 (Homo sapiens) (UniProt Q9NWZ3); assay: Inhibition of human IRAK4 at 0.1 uM relative to control
[11] = molecular target: Angiopoietin-1 receptor (Homo sapiens) (UniProt Q02763); assay: Inhibition of human TEK at 0.1 uM relative to control
[12] = test system: Tyrosine-protein kinase ABL1 (Homo sapiens), P00519 [T315I]; assay: Inhibition of human ABL1 T315I mutant at 0.1 uM relative to control
[13] = molecular target: Tyrosine-protein kinase Fyn (Homo sapiens) (UniProt P06241); assay: Inhibition of human FYN at 0.1 uM relative to control
[14] = molecular target: Tyrosine-protein kinase HCK (Homo sapiens) (UniProt P08631); assay: Inhibition of human HCK at 0.1 uM relative to control
[15] = molecular target: Aurora kinase C (Homo sapiens) (UniProt Q9UQB9); assay: Inhibition of human AURKC at 0.1 uM relative to control
[16] = molecular target: Glycogen synthase kinase-3 beta (Homo sapiens) (UniProt P49841); assay: Inhibition of human GSK3B at 0.1 uM relative to control
Sequence of Glycogen synthase kinase-3 beta (Homo sapiens) (P49841 whole entry, looked up): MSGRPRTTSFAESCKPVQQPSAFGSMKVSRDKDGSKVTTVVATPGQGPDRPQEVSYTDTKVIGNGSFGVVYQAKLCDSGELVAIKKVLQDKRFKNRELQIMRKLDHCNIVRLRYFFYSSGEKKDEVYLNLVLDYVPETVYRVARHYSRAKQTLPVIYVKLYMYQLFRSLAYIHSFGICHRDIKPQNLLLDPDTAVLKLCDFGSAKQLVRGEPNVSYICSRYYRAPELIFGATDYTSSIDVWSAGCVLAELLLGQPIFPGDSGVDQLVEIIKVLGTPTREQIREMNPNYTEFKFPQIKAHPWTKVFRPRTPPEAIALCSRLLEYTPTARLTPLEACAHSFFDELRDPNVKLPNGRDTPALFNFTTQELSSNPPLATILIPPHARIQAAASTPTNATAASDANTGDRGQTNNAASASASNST

[17] = molecular target: Vascular endothelial growth factor receptor 1 (Homo sapiens) (UniProt P17948); assay: Inhibition of human FLT1 at 0.1 uM relative to control
Sequence of Vascular endothelial growth factor receptor 1 (Homo sapiens) (P17948 whole entry): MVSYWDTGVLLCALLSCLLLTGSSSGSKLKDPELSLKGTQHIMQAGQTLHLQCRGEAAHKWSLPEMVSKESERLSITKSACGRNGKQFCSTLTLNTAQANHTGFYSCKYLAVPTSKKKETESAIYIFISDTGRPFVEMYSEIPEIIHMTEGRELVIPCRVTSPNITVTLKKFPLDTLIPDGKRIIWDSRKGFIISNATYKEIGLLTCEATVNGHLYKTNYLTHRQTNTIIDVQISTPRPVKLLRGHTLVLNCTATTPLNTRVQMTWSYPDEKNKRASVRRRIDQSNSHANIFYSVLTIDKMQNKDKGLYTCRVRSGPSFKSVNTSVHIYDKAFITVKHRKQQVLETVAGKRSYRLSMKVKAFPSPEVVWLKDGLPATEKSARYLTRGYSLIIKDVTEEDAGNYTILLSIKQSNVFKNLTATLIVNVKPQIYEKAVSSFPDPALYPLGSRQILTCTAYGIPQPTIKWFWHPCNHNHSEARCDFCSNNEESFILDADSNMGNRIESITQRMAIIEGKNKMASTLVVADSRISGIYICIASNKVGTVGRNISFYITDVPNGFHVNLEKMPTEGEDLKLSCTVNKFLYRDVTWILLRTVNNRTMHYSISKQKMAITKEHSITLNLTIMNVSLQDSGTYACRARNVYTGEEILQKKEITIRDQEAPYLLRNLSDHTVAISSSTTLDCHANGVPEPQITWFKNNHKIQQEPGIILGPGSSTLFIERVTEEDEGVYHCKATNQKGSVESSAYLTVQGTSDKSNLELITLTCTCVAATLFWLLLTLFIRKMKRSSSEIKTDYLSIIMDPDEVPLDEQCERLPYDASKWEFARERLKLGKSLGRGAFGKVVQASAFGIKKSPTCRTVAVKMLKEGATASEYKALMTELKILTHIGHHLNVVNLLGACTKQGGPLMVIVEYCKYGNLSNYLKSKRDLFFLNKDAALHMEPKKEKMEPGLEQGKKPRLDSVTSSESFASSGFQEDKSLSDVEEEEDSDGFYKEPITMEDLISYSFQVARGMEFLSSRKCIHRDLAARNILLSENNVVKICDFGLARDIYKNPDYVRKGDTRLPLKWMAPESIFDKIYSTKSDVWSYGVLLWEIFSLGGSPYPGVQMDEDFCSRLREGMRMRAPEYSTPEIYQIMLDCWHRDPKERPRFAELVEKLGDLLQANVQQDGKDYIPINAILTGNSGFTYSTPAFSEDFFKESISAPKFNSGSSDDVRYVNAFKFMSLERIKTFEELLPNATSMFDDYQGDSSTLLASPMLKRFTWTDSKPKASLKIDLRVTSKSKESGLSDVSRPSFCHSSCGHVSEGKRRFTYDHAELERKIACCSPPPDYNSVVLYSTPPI

[18] = molecular target: Tyrosine-protein kinase CSK (Homo sapiens) (UniProt P41240); assay: Inhibition of human CSK at 0.1 uM relative to control
Sequence of Tyrosine-protein kinase CSK (Homo sapiens) (P41240 2-450 limits assumed): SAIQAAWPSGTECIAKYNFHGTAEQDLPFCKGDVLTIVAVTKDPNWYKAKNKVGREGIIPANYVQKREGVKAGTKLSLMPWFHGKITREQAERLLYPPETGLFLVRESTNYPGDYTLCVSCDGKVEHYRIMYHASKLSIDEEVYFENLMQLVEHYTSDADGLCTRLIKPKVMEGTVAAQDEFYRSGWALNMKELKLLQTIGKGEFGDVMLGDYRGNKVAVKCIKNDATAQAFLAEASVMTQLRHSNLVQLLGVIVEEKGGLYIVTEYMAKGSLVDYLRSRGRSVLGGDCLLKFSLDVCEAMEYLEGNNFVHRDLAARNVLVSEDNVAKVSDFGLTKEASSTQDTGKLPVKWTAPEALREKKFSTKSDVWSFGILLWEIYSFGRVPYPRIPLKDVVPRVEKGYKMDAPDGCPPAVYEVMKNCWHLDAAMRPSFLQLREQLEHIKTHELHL

[19] = molecular target: Insulin-like growth factor 1 receptor (Homo sapiens) (UniProt P08069); assay: Inhibition of human IGF1R at 0.1 uM relative to control
Sequence of Insulin-like growth factor 1 receptor (Homo sapiens) (P08069 31-736 limits assumed): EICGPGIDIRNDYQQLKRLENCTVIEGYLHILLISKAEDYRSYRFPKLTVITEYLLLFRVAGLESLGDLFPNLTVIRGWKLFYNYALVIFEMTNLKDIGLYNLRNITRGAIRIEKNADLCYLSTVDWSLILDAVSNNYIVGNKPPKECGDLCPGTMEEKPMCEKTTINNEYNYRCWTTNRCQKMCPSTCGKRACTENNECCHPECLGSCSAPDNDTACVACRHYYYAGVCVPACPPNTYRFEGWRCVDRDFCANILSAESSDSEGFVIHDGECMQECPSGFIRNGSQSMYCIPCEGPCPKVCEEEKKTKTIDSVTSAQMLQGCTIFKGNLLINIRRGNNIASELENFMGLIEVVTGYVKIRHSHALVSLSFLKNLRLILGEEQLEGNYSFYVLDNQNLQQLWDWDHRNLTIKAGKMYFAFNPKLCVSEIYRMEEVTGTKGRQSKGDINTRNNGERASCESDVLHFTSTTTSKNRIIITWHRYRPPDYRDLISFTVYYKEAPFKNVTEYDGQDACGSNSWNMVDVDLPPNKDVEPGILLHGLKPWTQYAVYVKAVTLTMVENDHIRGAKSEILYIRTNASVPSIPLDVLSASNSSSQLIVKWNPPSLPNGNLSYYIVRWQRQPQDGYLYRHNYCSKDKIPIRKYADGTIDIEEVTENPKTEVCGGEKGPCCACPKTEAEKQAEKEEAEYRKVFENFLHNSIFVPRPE
Sequence of Insulin-like growth factor 1 receptor (Homo sapiens) (P08069 741-1367 limits assumed): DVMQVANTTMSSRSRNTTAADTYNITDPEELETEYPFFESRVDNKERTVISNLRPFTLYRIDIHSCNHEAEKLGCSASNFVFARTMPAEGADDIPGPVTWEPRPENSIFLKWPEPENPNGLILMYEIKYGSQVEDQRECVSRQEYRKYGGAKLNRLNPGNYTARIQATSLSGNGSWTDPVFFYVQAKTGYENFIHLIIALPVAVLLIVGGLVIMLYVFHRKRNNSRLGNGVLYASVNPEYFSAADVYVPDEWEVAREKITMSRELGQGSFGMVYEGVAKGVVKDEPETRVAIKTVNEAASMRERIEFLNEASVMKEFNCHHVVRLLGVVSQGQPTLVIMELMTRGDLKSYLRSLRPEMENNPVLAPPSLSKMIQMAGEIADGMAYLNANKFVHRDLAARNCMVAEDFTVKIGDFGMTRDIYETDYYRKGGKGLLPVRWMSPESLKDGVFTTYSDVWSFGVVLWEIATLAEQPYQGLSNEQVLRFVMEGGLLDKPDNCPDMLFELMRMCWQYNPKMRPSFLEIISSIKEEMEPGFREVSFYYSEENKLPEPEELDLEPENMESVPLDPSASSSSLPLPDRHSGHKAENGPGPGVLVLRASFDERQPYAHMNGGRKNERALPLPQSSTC

[20] = molecular target: AMP-activated protein kinase, AMPK (Homo sapiens) (UniProt P54646+O43741+P54619+Q9UGJ0+Q9Y478+Q13131+Q9UGI9); assay: Inhibition of human AMPK A1/B1/G1 at 0.1 uM relative to control; assay type: protein-complex assay
[21] = molecular target: Serine/threonine-protein kinase PLK1 (Homo sapiens) (UniProt P53350); assay: Inhibition of human PLK1 at 0.1 uM relative to control
[22] = molecular target: Ribosomal protein S6 kinase alpha-2 (Homo sapiens) (UniProt Q15349); assay: Inhibition of human RSK3 at 0.1 uM relative to control
[23] = molecular target: CDK2/Cyclin A2 (Homo sapiens) (UniProt P24941+P20248); assay: Inhibition of human CDK2/cyclin A at 0.1 uM relative to control; assay type: protein-complex assay
[24] = molecular target: Serine/threonine-protein kinase Sgk1 (Homo sapiens) (UniProt O00141); assay: Inhibition of human SGK1 at 0.1 uM relative to control
Sequence of Serine/threonine-protein kinase Sgk1 (Homo sapiens) (O00141 whole entry): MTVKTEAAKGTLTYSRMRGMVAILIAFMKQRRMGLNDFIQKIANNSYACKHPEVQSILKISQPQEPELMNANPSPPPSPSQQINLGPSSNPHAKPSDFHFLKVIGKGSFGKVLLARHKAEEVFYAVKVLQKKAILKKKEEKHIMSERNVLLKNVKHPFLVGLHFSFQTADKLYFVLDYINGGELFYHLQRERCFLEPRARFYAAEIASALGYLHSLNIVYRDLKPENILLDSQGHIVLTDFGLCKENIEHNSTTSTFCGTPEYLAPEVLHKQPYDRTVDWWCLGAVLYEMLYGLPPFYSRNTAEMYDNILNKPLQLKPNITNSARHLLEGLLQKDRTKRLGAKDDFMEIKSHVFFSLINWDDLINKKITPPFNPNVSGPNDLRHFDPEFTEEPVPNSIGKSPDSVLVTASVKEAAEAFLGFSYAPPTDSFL

[25] = molecular target: Receptor tyrosine-protein kinase erbB-2 (Homo sapiens) (UniProt P04626); assay: Inhibition of human HER2 at 0.1 uM relative to control
[26] = molecular target: Serine/threonine-protein kinase MRCK alpha (Homo sapiens) (UniProt Q5VT25); assay: Inhibition of human MRCKA at 0.1 uM relative to control
[27] = molecular target: RAC-alpha serine/threonine-protein kinase (Homo sapiens) (UniProt P31749); assay: Inhibition of human AKT1 at 0.1 uM relative to control
[28] = molecular target: Serine/threonine-protein kinase Chk2 (Homo sapiens) (UniProt O96017); assay: Inhibition of human CHK2 at 0.1 uM relative to control
[29] = molecular target: Tyrosine-protein kinase JAK2 (Homo sapiens) (UniProt O60674); assay: Inhibition of human JAK2 at 0.1 uM relative to control
[30] = molecular target: Serine/threonine-protein kinase Nek2 (Homo sapiens) (UniProt P51955); assay: Inhibition of human NEK2 at 0.1 uM relative to control
[31] = molecular target: Receptor-type tyrosine-protein kinase FLT3 (Homo sapiens, UniProt P36888, F691L); assay: Inhibition of FLT3 ITD F691L mutant (unknown origin) phosphorylation expressed in HEK293T cells preincubated for 1 hr followed by FLT3 ligand addition for 5 mins by Western blot analysis; assay type: cell-based, HEK-293T
[32] = Plasma clearance in ICR mouse at 2 mg/kg, iv; assay type: ADME, organism-based
[33] = Half life in Sprague-Dawley rat at 10 mg/kg, po; assay type: ADME, organism-based; conditions: in vivo
[34] = Cmax in Sprague-Dawley rat at 10 mg/kg, po; assay type: ADME, organism-based; set-up: dose 10 mg/kg, route oral; conditions: in vivo
[35] = Oral bioavailability in ICR mouse at 10 mg/kg; assay type: ADME, organism-based; conditions: in vivo
MV4-11 [36] = assay: Antitumor activity against human MV4-11 cells xenografted in nude mouse assessed as tumor growth inhibition at 10 mg/kg, po qd administered on day 1 to 5 measured during compound dosing; assay type: functional, organism-based
MV4-11 [37] = assay: Antitumor activity against human MV4-11 cells xenografted in nude mouse assessed as tumor growth inhibition at 25 mg/kg, po qd administered on day 8 to 12 measured during compound dosing; assay type: functional, organism-based
[38] = AUC (0 to infinity) in ICR mouse at 10 mg/kg, po; assay type: ADME, organism-based; set-up: dose 10 mg/kg, time infinity, route oral; conditions: in vivo
[39] = molecular target: Bcr/Abl fusion protein (Homo sapiens) (UniProt P00519+P11274); conditions: K562
Description: Inhibition of wild type BCR/ABL in FLT3 deficient human K562 cells assessed as cell growth inhibition after 72 hrs by MTS assay

[40] = test system: Receptor-type tyrosine-protein kinase FLT3 (Homo sapiens), P36888 [D835Y]
[41] = test system: Receptor-type tyrosine-protein kinase FLT3 (Homo sapiens), P36888 [D835F]

With `CCc1cc(NC(=O)Nc2ccc(-c3cnc(Nc4cc(N5CCN(CC)CC5)nc(C)n4)s3)cc2)no1` the GI50 (U-937) was 1100 nM, the bioavailability [1] was 20% and the inhibition [2] was 98%. The inhibition [3] was 94%, the inhibition [4] was 65% and the inhibition [5] was 82%. It also gave an inhibition [6] of 78%, an inhibition [7] of 66% and an inhibition [8] of 64%. The inhibition [9] was 63%, the inhibition [10] was 61% and the inhibition [11] was 61%. For the same compound, the inhibition [12] was 51%, the inhibition [13] was 46% and the inhibition [14] was 45%. The inhibition [15] was 45%, the inhibition [16] was 44% and the inhibition [17] was 44%. It also gave an inhibition [18] of 23%, an inhibition [19] of 16% and an inhibition [20] of 16%. The inhibition [21] was 9%, the inhibition [22] was 7% and the inhibition [23] was 4%. The inhibition [24] was 2%, the inhibition [25] was 0% and the inhibition [26] was 0%. The inhibition [27] was 0%, the inhibition [28] was -3% and the inhibition [29] was -3%. It also gave an inhibition [30] of -4%, an IC50 [31] of 10 nM and a clearance [32] of 82 mL/min/kg. The half-life [33] was 4.3 h, the Cmax [34] was 122 ng/mL and the bioavailability [35] was 35%. The TGI (MV4-11 [36]) was “Active”, the TGI (MV4-11 [37]) was “Active” and the AUC(0-inf) [38] was 942 ng·h/mL. The GI50 [39] was 190 nM, the GI50 [40] was 6 nM and the GI50 [41] was 38 nM.
